{"source": "patent US9474777B2", "about": "“Plant extract and the process for treating hepatic fibrosis and liver cancer” (Development Center for Biotechnology, priority 2013, dated 2016)", "key": {"[1]": {"test_system": "diethylnitrosamine (DEN)-induced liver fibrosis and liver cancer", "assay": "DEN-induced liver fibrosis and liver cancer model", "type": "in vivo, Wistar rats", "excerpt": "Specifically, five-to-six weeks old Wistar rats were obtained from the animal center at the National Taiwan University Medical School. The rats were given 100 ppm DEN drinking water, and they were weighed weekly at feeding times. […] The feeding of DEN was continued for 9 weeks, which is sufficient to induce the occurrence of liver cirrhosis and liver cancer. Liver cancers were removed from the rats for cancer recurrence study."}, "[2]": {"test_system": "recurrence of liver cirrhosis and liver cancers after removal of DEN-induced tumor", "assay": "Recurrence model after removal of DEN-induced tumor", "type": "in vivo, Wistar rats", "settings": "pirfenidone 200 mg/kg/day", "procedure": "Specifically, five-to-six weeks old Wistar rats were obtained from the animal center at the National Taiwan University Medical School. The rats were given 100 ppm DEN drinking water, and they were weighed weekly at feeding times. […] The feeding of DEN was continued for 9 weeks, which is sufficient to induce the occurrence of liver cirrhosis and liver cancer. Liver cancers were removed from the rats for cancer recurrence study. The test samples (GP-T) were tested at two different concentrations and administered to the rats for four weeks (from the ninth to the thirteenth week). Pirfenidone was used as a positive control. In the tests, each group included 6-8 rats. The tests were conducted using the rat model and different concentrations of the GP test samples in the food to assess their effects on liver fibrosis and liver cancer recurrence. Male five-to-six weeks old Wistar rats were obtained from the animal center at the National Taiwan University Medical School. The rats were fed drinking water containing 100 ppm carcinogen, diethylnitrosamine (DEN). During the feeding period, the rats were weighed weekly. The concentrations of DEN were increased according to the body weight increases. After continuous feeding for 9 weeks, DEN was sufficient to induce liver cirrhosis and liver cancer in rats. The liver cancers were removed by surgery after the 9 week period. Then, the rats were treated with two different doses of the test drugs (GP-T) for four weeks (from the ninth week to the thirteenth week). Some rats were given pirfenidone as positive control. In this experiments, each group has n=6-8 rats. This experiment uses a rat model, coupled with feeding the rats with different doses of the test drugs, to evaluate the impacts of the test drugs on the recurrence of liver cirrhosis and liver cancers."}}}
{"smiles": "CNC(=O)c1cc(Oc2ccc(NC(=O)Nc3ccc(Cl)c(C(F)(F)F)c3)cc2)ccn1", "note": "[Sorafenib]", "values": [{"measurement": "Survival Rate", "setting": "[1]; sorafenib 30 mg/kg, 6 weeks, DEN rats", "value": 100, "unit": "%"}, {"measurement": "number of activated astrocytes (α-SMA staining)", "setting": "[1]; sorafenib group (S), 30 mg/kg", "value": "significantly reduced number of activated astrocytes"}]}
{"smiles": "Cc1ccc(=O)n(-c2ccccc2)c1", "note": "[pirfenidone]", "values": [{"measurement": "prophylactic effect on the recurrence of carcinogenesis after tumor removal", "setting": "[2]", "value": "no prophylactic effect"}, {"measurement": "hydroxyproline content in liver", "setting": "[2]; FIG. 14D", "value": "decreased significantly"}, {"measurement": "carcinogenesis presented by GST-p(+) density", "setting": "[2]; four weeks after tumor ablation", "value": "decreased"}]}
